For orientation: IC50 means the concentration that gives 50% inhibition.

The target in this assay is SARS-CoV-2 Papain like protease (PLpro) (Severe acute respiratory syndrome coronavirus 2 (2019-nCoV) (SARS-CoV-2), UniProt P0DTD1). Nature of the assay: Papain Like Protease (PLpro) biochemical assay with profluorogenic substrate Z-RLRGG-AMC. Conditions: SARS-CoV-2 PLpro 6.25 nM, 25 μM Z-RLRGG-AMC substrate, 60 minute reaction; read-out: IC50.
As for `Cc1ccc(N2CCC(N)C2=O)cc1C(=O)N[C@H](C)c1cc(-c2cnn(C)c2)nc2ccccc12` (some centres unmarked) [Example 247], the IC50 is 91 nM.

As for `Cc1ccccc1C(=O)NC(C)c1cc(-c2cc(C(C)C)no2)nc2ccccc12` (centres unmarked) [Example 124, 2-methyl-N-(1-{2-[3-(propan-2-yl)-1,2-oxazol-5-yl]quinolin-4-yl}ethyl)benzamide], the half-inhibitory concentration (IC50) was 635 nM.

For `Cc1ccc(CN)cc1C(=O)N[C@H](C)c1cc(-c2cc(C(=O)O)c[nH]2)nc2ccccc12` [Example 20, (R)-5-(4-(1-(5-(aminomethyl)-2-methylbenzamido)ethyl)quinolin-2-yl)-1H-pyrrole-3-carboxylic acid], the IC50 turned out to be 41 nM.

For `Cc1cc(C(NCc2cscn2)C(F)(F)F)ccc1C(=O)N[C@H](C)c1cc(-c2cnn(C)c2)nc2ccccc12` (stereo partly drawn) [Example 310, 2-methyl-N-((R)-1-(2-(1-methyl-1H-pyrazol-4-yl)quinolin-4-yl)ethyl)-4-(2,2,2-trifluoro-1-((thiazol-4-ylmethyl)amino)ethyl)benzamide], the IC50 is 3 nM.

For the molecule `Cc1ccc(NC(=O)[C@H]2CCCCN2)cc1C(=O)N[C@H](C)c1cc(-c2ccn[nH]2)cc2ccccc12` (single isomer, unassigned) [Example 68], the IC50 was determined as 9 nM.

Take `Cc1ccccc1C(=O)NC(C)c1cc(-c2ccc(NS(C)(=O)=O)cc2)nc2ccccc12` (centres unmarked) [Example 122, N-[1-(2-{4-[(methanesulfonyl)amino]phenyl}quinolin-4-yl)ethyl]-2-methylbenzamide]: the IC50 amounted to 201 nM.

For the molecule `COC[C@H](OCc1cscn1)c1ccc(C(=O)N[C@H](C)c2cc(-c3cnn(C)c3)nc3ccccc23)c(C)c1` (single isomer, unassigned) [Example 333, 4-((R*)-2-methoxy-1-(thiazol-4-ylmethoxy)ethyl)-2-methyl-N-((R)-1-(2-(1-methyl-1H-pyrazol-4-yl)quinolin-4-yl)ethyl)benzamide], the IC50 was less than 1 nM.

For `CNC(=O)c1c[nH]c(-c2cc(C(C)NC(=O)c3cc(CN)ccc3C)c3ccccc3c2)c1` (centres unmarked) [Example 71, 5-(4-(1-(5-(aminomethyl)-2-methylbenzamido)ethyl)naphthalen-2-yl)-N-methyl-1H-pyrrole-3-carboxamide], the IC50 amounted to 16 nM.

`Cc1cc(COCc2cocn2)ccc1C(=O)NC1(c2cc(-c3cc(C(=O)N(C)C)n[nH]3)nc3ccccc23)CC1` [Example 346, N,N-dimethyl-5-(4-(1-(2-methyl-4-((oxazol-4-ylmethoxy)methyl)benzamido)cyclopropyl)quinolin-2-yl)-1H-pyrazole-3-carboxamide]: the IC50 was less than 1 nM.

In the case of `Cc1ccc(CN)cc1C(=O)N[C@H](C)c1cc(-n2cncn2)nc2ccccc12` [Example 24, (R)-N-(1-(2-(1H-1,2,4-triazol-1-yl)quinolin-4-yl)ethyl)-5-(aminomethyl)-2-methylbenzamide], the IC50 stood at 250 nM.

In the case of `Cc1ccccc1C(=O)NC(C)c1cc(-c2ccc3oc(=O)[nH]c3c2)nc2ccccc12` (centres unmarked) [Example 116, 2-methyl-N-{1-[2-(2-oxo-2,3-dihydro-1,3-benzoxazol-5-yl)quinolin-4-yl]ethyl} benzamide], the IC50 was 406 nM.

As to `CCCc1cc(C(C)NC(=O)c2ccccc2C)c2ccccc2n1` (stereo in doubt) [Example 153, 2-methyl-N-[(1R)-1-(2-propylquinolin-4-yl)ethyl]benzamide], the IC50 is 311 nM.

On to `Cc1ccc(CN)cc1C(=O)N[C@H](C)c1cc(-c2cc(C(N)=O)c[nH]2)nc2ccccc12` [Example 21, (R)-5-(4-(1-(5-(aminomethyl)-2-methylbenzamido)ethyl)quinolin-2-yl)-1H-pyrrole-3-carboxamide], for which the IC50 turned out to be 16 nM.

Consider `Cc1ccc(N2CCNCC2=O)cc1C(=O)N[C@H](C)c1cc(-c2cnn(C)c2)nc2ccccc12` [Example 248], for which the IC50 came out at 390 nM.

For the origin of these results see patent US20240245673A1, “Papain-like protease (PLpro) inhibitors” (Pfizer Inc., priority 2022, published 2024).
